“And” between values parts separate entries of the source, which are not always exact repeats. Identical values can stand only once. Numbers after ± are expanded uncertainties.
Assay: molar heat capacity at constant pressure
Settings: 101.33 kPa, Crystal, Small (less than 1 g) adiabatic calorimetry

CC(C)(C)c1ccc(Oc2ccccc2)cc1 [4-tert-butylphenyl phenyl ether]
Settings | molar heat capacity at constant pressure
5 K | 0.671 ± 0.044 J/K/mol
7.93 K | 2.627 ± 0.12 J/K/mol
8.1 K | 2.719 ± 0.12 J/K/mol
8.28 K | 3.035 ± 0.14 J/K/mol
8.43 K | 3.06 ± 0.14 J/K/mol
8.59 K | 3.268 ± 0.15 J/K/mol
8.75 K | 3.459 ± 0.16 J/K/mol
8.9 K | 3.675 ± 0.17 J/K/mol
9.05 K | 3.725 ± 0.17 J/K/mol
9.2 K | 3.958 ± 0.17 J/K/mol
9.49 K | 4.365 ± 0.19 J/K/mol
9.63 K | 4.573 ± 0.2 J/K/mol
9.78 K | 4.881 ± 0.22 J/K/mol
9.92 K | 5.097 ± 0.22 J/K/mol
10 K | 4.906 ± 0.17 J/K/mol
10.28 K | 5.488 ± 0.24 J/K/mol
10.56 K | 5.961 ± 0.26 J/K/mol
10.85 K | 6.419 ± 0.27 J/K/mol
11.15 K | 6.884 ± 0.3 J/K/mol
12.02 K | 8.298 ± 0.36 J/K/mol
12.32 K | 8.896 ± 0.42 J/K/mol
12.61 K | 9.395 ± 0.42 J/K/mol
12.91 K | 9.977 ± 0.42 J/K/mol
13.21 K | 10.48 ± 0.42 J/K/mol
13.51 K | 11.06 ± 0.5 J/K/mol
13.81 K | 11.64 ± 0.5 J/K/mol
14.11 K | 12.22 ± 0.5 J/K/mol
14.41 K | 12.72 ± 0.5 J/K/mol
14.71 K | 13.3 ± 0.58 J/K/mol
15 K | 13.89 ± 0.33 J/K/mol
15.02 K | 13.97 ± 0.58 J/K/mol
15.32 K | 14.55 ± 0.58 J/K/mol
15.63 K | 15.05 ± 0.67 J/K/mol
15.94 K | 15.71 ± 0.67 J/K/mol
16.25 K | 16.3 ± 0.67 J/K/mol
16.56 K | 16.96 ± 0.75 J/K/mol
16.87 K | 17.63 ± 0.75 J/K/mol
17.18 K | 18.13 ± 0.75 J/K/mol
17.49 K | 18.96 ± 0.75 J/K/mol
17.8 K | 19.54 ± 0.83 J/K/mol
18.12 K | 20.12 ± 0.83 J/K/mol
18.43 K | 20.79 ± 0.83 J/K/mol
18.74 K | 21.29 ± 0.91 J/K/mol
19.06 K | 21.95 ± 0.91 J/K/mol
19.37 K | 22.7 ± 0.91 J/K/mol
19.68 K | 23.36 ± 1 J/K/mol
20 K | 23.95 ± 1 J/K/mol and 23.95 ± 0.58 J/K/mol
20.57 K | 25.05 ± 0.42 J/K/mol
21.33 K | 26.59 ± 0.44 J/K/mol
22.1 K | 28.07 ± 0.47 J/K/mol
22.86 K | 29.59 ± 0.48 J/K/mol
23.63 K | 31.1 ± 0.51 J/K/mol
24.4 K | 32.68 ± 0.53 J/K/mol
25 K | 33.84 ± 0.75 J/K/mol
25.18 K | 34.25 ± 0.55 J/K/mol
25.95 K | 35.83 ± 0.57 J/K/mol
26.73 K | 37.02 ± 0.58 J/K/mol
27.51 K | 38.42 ± 0.6 J/K/mol
28.29 K | 39.88 ± 0.62 J/K/mol
29.07 K | 41.31 ± 0.64 J/K/mol
29.85 K | 42.77 ± 0.66 J/K/mol
30 K | 43.07 ± 0.83 J/K/mol
30.63 K | 44.28 ± 0.67 J/K/mol
31.42 K | 45.65 ± 0.68 J/K/mol
32.21 K | 47 ± 0.71 J/K/mol
33 K | 48.3 ± 0.72 J/K/mol
33.79 K | 49.62 ± 0.74 J/K/mol
34.58 K | 50.93 ± 0.76 J/K/mol
35 K | 51.38 ± 0.58 J/K/mol
35.37 K | 52 ± 0.77 J/K/mol
36.16 K | 53.14 ± 0.79 J/K/mol
36.95 K | 54.29 ± 0.81 J/K/mol
37.74 K | 55.42 ± 0.82 J/K/mol
38.53 K | 56.54 ± 0.84 J/K/mol
39.32 K | 57.57 ± 0.86 J/K/mol
40 K | 58.7 ± 0.67 J/K/mol
40.11 K | 58.69 ± 0.55 J/K/mol
40.91 K | 59.85 ± 0.56 J/K/mol
41.7 K | 61.07 ± 0.57 J/K/mol
42.49 K | 62.01 ± 0.57 J/K/mol
43.29 K | 63.2 ± 0.59 J/K/mol
44.08 K | 64.35 ± 0.6 J/K/mol
44.88 K | 65.44 ± 0.61 J/K/mol
45 K | 65.52 ± 0.42 J/K/mol
45.68 K | 66.42 ± 0.62 J/K/mol
46.48 K | 67.56 ± 0.62 J/K/mol
47.28 K | 68.56 ± 0.63 J/K/mol
48.08 K | 69.68 ± 0.64 J/K/mol
48.87 K | 70.7 ± 0.65 J/K/mol
49.67 K | 71.74 ± 0.67 J/K/mol
50 K | 72.09 ± 0.5 J/K/mol
50.47 K | 72.8 ± 0.67 J/K/mol
51.27 K | 73.72 ± 0.68 J/K/mol
52.07 K | 74.77 ± 0.69 J/K/mol
52.87 K | 75.83 ± 0.7 J/K/mol
53.67 K | 77.23 ± 0.71 J/K/mol
56.08 K | 80.21 ± 0.73 J/K/mol
56.88 K | 81.22 ± 0.74 J/K/mol
57.68 K | 82.24 ± 0.75 J/K/mol
58.49 K | 83.23 ± 0.75 J/K/mol
59.3 K | 84.31 ± 0.75 J/K/mol
60 K | 85.31 ± 0.58 J/K/mol
60.1 K | 85.31 ± 0.75 J/K/mol
60.91 K | 86.3 ± 0.75 J/K/mol
61.71 K | 87.3 ± 0.83 J/K/mol
62.51 K | 88.3 ± 0.83 J/K/mol
64.11 K | 90.88 ± 0.83 J/K/mol
64.92 K | 91.87 ± 0.83 J/K/mol
65.72 K | 92.71 ± 0.83 J/K/mol
66.52 K | 93.62 ± 0.83 J/K/mol
67.33 K | 94.45 ± 0.83 J/K/mol
68.13 K | 95.12 ± 0.83 J/K/mol
68.94 K | 96.12 ± 0.91 J/K/mol
69.74 K | 96.95 ± 0.91 J/K/mol
70 K | 97.28 ± 0.5 J/K/mol
70.74 K | 97.94 ± 0.91 J/K/mol
71.95 K | 99.19 ± 0.91 J/K/mol
73.16 K | 100.61 ± 0.91 J/K/mol
74.36 K | 101.94 ± 0.91 J/K/mol
75.56 K | 102.6 ± 0.91 J/K/mol
76.77 K | 103.6 ± 0.91 J/K/mol
77.98 K | 104.6 ± 0.91 J/K/mol
79.18 K | 105.68 ± 1 J/K/mol
80 K | 106.59 ± 0.58 J/K/mol
80.21 K | 106.67 ± 0.58 J/K/mol
80.39 K | 106.92 ± 0.58 J/K/mol
81.01 K | 107.17 ± 0.67 J/K/mol
81.6 K | 108.09 ± 0.67 J/K/mol
81.81 K | 108.17 ± 0.67 J/K/mol
82.62 K | 108.84 ± 0.67 J/K/mol
82.8 K | 109.25 ± 0.67 J/K/mol
83.42 K | 109.58 ± 0.67 J/K/mol
84.01 K | 110.25 ± 0.67 J/K/mol
85.83 K | 111.83 ± 0.67 J/K/mol
86.63 K | 112.66 ± 0.67 J/K/mol
87.43 K | 113.33 ± 0.67 J/K/mol
88.23 K | 114.16 ± 0.67 J/K/mol
89.03 K | 115.07 ± 0.67 J/K/mol
89.84 K | 115.9 ± 0.67 J/K/mol
90 K | 115.99 ± 0.58 J/K/mol
90.64 K | 116.65 ± 0.67 J/K/mol
91.44 K | 117.48 ± 0.67 J/K/mol
92.24 K | 118.23 ± 0.67 J/K/mol
93.05 K | 119.15 ± 0.67 J/K/mol
93.85 K | 119.73 ± 0.67 J/K/mol
94.65 K | 120.48 ± 0.67 J/K/mol
95.46 K | 121.14 ± 0.67 J/K/mol
96.26 K | 121.97 ± 0.67 J/K/mol
97.06 K | 122.72 ± 0.67 J/K/mol
97.87 K | 123.22 ± 0.67 J/K/mol
98.67 K | 124.05 ± 0.67 J/K/mol
99.47 K | 125.13 ± 0.75 J/K/mol
100 K | 125.71 ± 0.58 J/K/mol
100.28 K | 125.8 ± 0.75 J/K/mol
101.28 K | 127.13 ± 0.75 J/K/mol
102.48 K | 128.13 ± 0.75 J/K/mol
103.69 K | 129.21 ± 0.75 J/K/mol
104.89 K | 130.45 ± 0.75 J/K/mol
106.1 K | 131.45 ± 0.75 J/K/mol
107.32 K | 132.78 ± 0.75 J/K/mol
108.53 K | 133.86 ± 0.75 J/K/mol
109.74 K | 134.86 ± 0.75 J/K/mol
110 K | 135.19 ± 0.67 J/K/mol
110.96 K | 136.11 ± 0.75 J/K/mol
112.17 K | 137.19 ± 0.75 J/K/mol
113.39 K | 138.27 ± 0.75 J/K/mol
114.61 K | 139.43 ± 0.75 J/K/mol
115.83 K | 140.51 ± 0.75 J/K/mol
117.05 K | 141.6 ± 0.75 J/K/mol
118.28 K | 142.59 ± 0.83 J/K/mol
119.5 K | 143.76 ± 0.83 J/K/mol
